# Data taken from ChEMBL document CHEMBL2040759, “Design, synthesis and anticancer activity of nitric oxide donating/chalcone hybrids” (2012).
# Experiments:
# Assay type in all cases: functional
# HT-29 = assay: Growth inhibition of human HT-29 cells after 48 hrs by SRB assay; details: HT-29, 48 h
# 786-0 = assay: Growth inhibition of human 786-0 cells after 48 hrs by SRB assay; details: 786-0, 48 h
# RXF 393 = assay: Growth inhibition of human RXF393 cells after 48 hrs by SRB assay; details: RXF 393, 48 h
# SK-MEL-28 = assay: Growth inhibition of human SK-MEL-28 cells after 48 hrs by SRB assay; details: SK-MEL-28, 48 h
# [1] = Growth inhibition of human RPMI18226 cells after 48 hrs by SRB assay; details: RPMI18226, 48 h
# IGROV-1 = assay: Growth inhibition of human IGROV1 cells after 48 hrs by SRB assay; details: IGROV-1, 48 h
# HL-60(TB) [2] = assay: Growth inhibition of human HL-60(TB) cells after 48 hrs by SRB assay; details: HL-60, 48 h
# OVCAR-3 = assay: Growth inhibition of human OVCAR3 cells after 48 hrs by SRB assay; details: OVCAR-3, 48 h
# COLO 205 = assay: Growth inhibition of human COLO205 cells after 48 hrs by SRB assay; details: COLO 205, 48 h
# T47D = assay: Growth inhibition of human T47D cells after 48 hrs by SRB assay
# UACC-62 = assay: Growth inhibition of human UACC62 cells after 48 hrs by SRB assay; details: UACC-62, 48 h
# SW-620 = assay: Growth inhibition of human SW620 cells after 48 hrs by SRB assay; details: SW-620, 48 h
# NCI-H522 = assay: Growth inhibition of human NCI-H522 cells after 48 hrs by SRB assay; details: NCI-H522, 48 h
# A498 = assay: Growth inhibition of human A498 cells after 48 hrs by SRB assay; details: A498, 48 h
# NCI-H226 = assay: Growth inhibition of human NCI-H226 cells after 48 hrs by SRB assay; details: NCI-H226, 48 h
# OVCAR-4 = assay: Growth inhibition of human OVCAR4 cells after 48 hrs by SRB assay; details: OVCAR-4, 48 h
# M14 = assay: Growth inhibition of human M14 cells after 48 hrs by SRB assay; details: M14, 48 h
# OVCAR-8 = assay: Growth inhibition of human OVCAR8 cells after 48 hrs by SRB assay; details: OVCAR-8, 48 h
# K562 = assay: Growth inhibition of human K562 cells after 48 hrs by SRB assay; details: K562, 48 h
# UACC-257 = assay: Growth inhibition of human UACC257 cells after 48 hrs by SRB assay; details: UACC-257, 48 h
# MDA-MB-468 = assay: Growth inhibition of human MDA-MB-468 cells after 48 hrs by SRB assay; details: MDA-MB-468, 48 h
# SR = assay: Growth inhibition of human SR cells after 48 hrs by SRB assay
# SK-OV-3 = assay: Growth inhibition of human SKOV3 cells after 48 hrs by SRB assay; details: SK-OV-3, 48 h
# HCT-15 = assay: Growth inhibition of human HCT15 cells after 48 hrs by SRB assay; details: HCT-15, 48 h
# CAKI-1 = assay: Growth inhibition of human Caki1 cells after 48 hrs by SRB assay; details: CAKI-1, 48 h
# HCC 2998 = assay: Growth inhibition of human HCC2998 cells after 48 hrs by SRB assay; details: HCC 2998, 48 h
# NCI-H322M = assay: Growth inhibition of human NCI-H322M cells after 48 hrs by SRB assay
# CCRF-CEM = assay: Growth inhibition of human CCRF-CEM cells after 48 hrs by SRB assay
# NCI-H460 = assay: Growth inhibition of human NCI-H460 cells after 48 hrs by SRB assay; details: NCI-H460, 48 h
# UO-31 = assay: Growth inhibition of human UO31 cells after 48 hrs by SRB assay; details: UO-31, 48 h
# [3] = Growth inhibition of human Hs 578T cells after 48 hrs by SRB assay
# MOLT-4 = assay: Growth inhibition of human MOLT4 cells assessed as cell growth at 10^-5 M after 48 hrs by SRB assay; details: MOLT-4, 48 h, read-out: Activity
# HL-60(TB) [4] = assay: Growth inhibition of human HL-60(TB) cells assessed as cell growth at 10^-5 M after 48 hrs by SRB assay; details: HL-60, 48 h, read-out: Activity
# [5] = read-out: LC50 (the source's name)
smiles,measurement,setting,value
O=C(CO[N+](=O)[O-])Nc1ccc(C(=O)/C=C/c2ccc(Cl)cc2)cc1,GI50,HT-29,2.36 µM
same,TGI,HT-29,6.36 µM
same,CC50,HT-29; [5],> 100 µM
same,GI50,786-0,11.6 µM
same,TGI,786-0,48 µM
same,CC50,786-0; [5],> 100 µM
same,GI50,RXF 393,4.82 µM
same,TGI,RXF 393,17.8 µM
same,CC50,RXF 393; [5],48.5 µM
same,GI50,SK-MEL-28,4.96 µM
same,TGI,SK-MEL-28,18.1 µM
same,CC50,SK-MEL-28; [5],49.5 µM
same,GI50,[1],1.41 µM
same,TGI,[1],8.36 µM
same,CC50,[1]; [5],> 100 µM
same,GI50,IGROV-1,13.4 µM
same,TGI,IGROV-1,30 µM
same,CC50,IGROV-1; [5],67.4 µM
same,GI50,HL-60(TB) [2],3.59 µM
same,TGI,HL-60(TB) [2],> 100 µM
same,CC50,HL-60(TB) [2]; [5],> 100 µM
same,GI50,OVCAR-3,2.22 µM
same,TGI,OVCAR-3,6.55 µM
same,CC50,OVCAR-3; [5],23.9 µM
same,GI50,COLO 205,2.57 µM
same,TGI,COLO 205,6.09 µM
same,CC50,COLO 205; [5],21.1 µM
same,GI50,T47D,3.26 µM
same,TGI,T47D,14.9 µM
same,CC50,T47D; [5],58.3 µM
same,GI50,UACC-62,2.76 µM
same,TGI,UACC-62,11 µM
same,CC50,UACC-62; [5],51.3 µM
same,GI50,SW-620,1.44 µM
same,TGI,SW-620,2.88 µM
same,CC50,SW-620; [5],5.77 µM
same,GI50,NCI-H522,2.31 µM
same,TGI,NCI-H522,8.37 µM
same,CC50,NCI-H522; [5],32.8 µM
same,GI50,A498,15.4 µM
same,TGI,A498,54.9 µM
same,CC50,A498; [5],> 100 µM
same,GI50,NCI-H226,5.15 µM
same,TGI,NCI-H226,29 µM
same,CC50,NCI-H226; [5],> 100 µM
same,GI50,OVCAR-4,4.06 µM
same,TGI,OVCAR-4,21 µM
same,CC50,OVCAR-4; [5],76.5 µM
same,GI50,M14,2.05 µM
same,TGI,M14,4.96 µM
same,CC50,M14; [5],17.9 µM
same,GI50,OVCAR-8,3.24 µM
same,TGI,OVCAR-8,14 µM
same,CC50,OVCAR-8; [5],63 µM
same,GI50,K562,2.6 µM
same,TGI,K562,> 100 µM
same,CC50,K562; [5],> 100 µM
same,GI50,UACC-257,4.33 µM
same,TGI,UACC-257,15.9 µM
same,CC50,UACC-257; [5],40.7 µM
same,GI50,MDA-MB-468,2.06 µM
same,TGI,MDA-MB-468,5.07 µM
same,CC50,MDA-MB-468; [5],17.1 µM
same,GI50,SR,3.64 µM
same,TGI,SR,> 100 µM
same,CC50,SR; [5],> 100 µM
same,GI50,SK-OV-3,10.1 µM
same,TGI,SK-OV-3,65.9 µM
same,CC50,SK-OV-3; [5],> 100 µM
same,GI50,HCT-15,2.03 µM
same,TGI,HCT-15,6.53 µM
same,CC50,HCT-15; [5],59.7 µM
same,GI50,CAKI-1,11.8 µM
same,TGI,CAKI-1,54.5 µM
same,CC50,CAKI-1; [5],> 100 µM
same,GI50,HCC 2998,1.75 µM
same,TGI,HCC 2998,3.64 µM
same,CC50,HCC 2998; [5],7.57 µM
same,GI50,NCI-H322M,10.3 µM
same,TGI,NCI-H322M,22.6 µM
same,CC50,NCI-H322M; [5],49.6 µM
same,GI50,CCRF-CEM,2.73 µM
same,TGI,CCRF-CEM,16.5 µM
same,CC50,CCRF-CEM; [5],> 100 µM
same,GI50,NCI-H460,12.7 µM
same,TGI,NCI-H460,54.9 µM
same,CC50,NCI-H460; [5],> 100 µM
same,GI50,UO-31,1.52 µM
same,TGI,UO-31,12.1 µM
same,CC50,UO-31; [5],38.5 µM
same,GI50,[3],2.85 µM
same,TGI,[3],14.2 µM
same,CC50,[3]; [5],> 100 µM
O=C(CO[N+](=O)[O-])Nc1ccc(C(=O)/C=C/c2ccc3c(c2)OCO3)cc1,growth at 10 µM,MOLT-4,99.7%
same,growth at 10 µM,HL-60(TB) [4],73.7%
